# Test results from PubChem BioAssay (NCI).
#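 All cell lines were grown in 96-well plates and treated with compound for 48 hours. Here, GI50 denotes the concentration required for 50% inhibition of growth. The concentration for full growth arrest is given as TGI.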
# How the values were obtained:
# Test in all cases: NCI tumour cell line growth inhibition, 48 h
# OVCAR-3 ovarian = tested on: OVCAR-3 ovarian
# UACC-257 melanoma = tested on: UACC-257 melanoma
# OVCAR-5 ovarian = tested on: OVCAR-5 ovarian
# BT-549 breast = tested on: BT-549 breast
# 786-0 renal = tested on: 786-0 renal
# MDA-MB-231 breast = tested on: MDA-MB-231 breast
# SNB-19 CNS = tested on: SNB-19 CNS
# HOP-92 NSCLC = tested on: HOP-92 NSCLC
# ACHN renal = tested on: ACHN renal
# HS 578T breast = tested on: HS 578T breast
Structure (SMILES),GI50 (OVCAR-3 ovarian) [µM],TGI (OVCAR-3 ovarian) [µM],GI50 (UACC-257 melanoma) [µM],TGI (UACC-257 melanoma) [µM],GI50 (OVCAR-5 ovarian) [µM],TGI (OVCAR-5 ovarian) [µM],GI50 (BT-549 breast) [µM],TGI (BT-549 breast) [µM],GI50 (786-0 renal) [µM],TGI (786-0 renal) [µM],GI50 (MDA-MB-231 breast) [µM],TGI (MDA-MB-231 breast) [µM],GI50 (SNB-19 CNS) [µM],TGI (SNB-19 CNS) [µM],GI50 (HOP-92 NSCLC) [µM],TGI (HOP-92 NSCLC) [µM],GI50 (ACHN renal) [µM],TGI (ACHN renal) [µM],GI50 (HS 578T breast) [µM],TGI (HS 578T breast) [µM]
Cc1cc(S(=O)(=O)Nc2nc3cscc3c(=O)n2Cc2ccccc2)c(S)cc1Cl,32.2,> 100,> 100,> 100,87.1,> 100,81.1,> 100,24.3,> 100,34,> 100,29.1,> 100,> 100,> 100,52.6,> 100,65.6,> 100
Cc1cc(=O)oc2cc(OC(=O)N(C)C)c(Cl)cc12,–,> 100,–,> 100,–,> 100,–,> 100,–,> 100,–,> 100,–,> 100,–,> 100,–,> 100,–,> 100
COC(=O)[C@@H](C)C[C@H](Cc1ccccc1)NC(=O)c1csc(CC[C@H](C(C)C)N(C)C(=O)[C@@H](NC(=O)[C@H]2CCCCN2C)C(C)C)n1,0.108,–,> 33.3,> 33.3,1.26,> 33.3,0.179,3.81,0.382,> 30.2,0.318,> 8.8,0.168,> 33.3,0.582,> 26.9,0.324,> 33.3,0.761,15.8
CC(=O)O[C@H]1CC[C@@]2(C)C(=CC[C@H]3[C@@H]4CC[C@H](c5cc(C(F)(F)F)n(C(C)=O)n5)[C@@]4(C)CC[C@@H]32)C1,–,18.7,–,13.9,–,22.1,–,25.8,–,17.7,–,14.8,–,24,–,6.43,–,20.2,–,> 60.8
[Cl][Hg][Cl],15.9,32.1,17.7,34.9,19.3,33.6,20.3,34.8,12.6,25.1,17.1,31.7,17.9,32,17.3,32.7,18,32,22.8,57.4
COc1ccc2c(c1)C(=O)c1c-2n(CCCN=[N+]=[N-])c(=O)c2cc(OC)c(OC)cc12,49.2,> 100,> 100,> 100,> 100,> 100,> 100,> 100,26.7,89.5,> 100,> 100,47,> 100,9.13,44.6,10.2,25.8,70,> 100
CC[N+](CC)=c1sc2c(s1)C(c1ccc(Cl)cc1)Oc1ccc(Cl)cc1-2 (centres undefined),1.91,3.95,2.33,5.46,2.32,6.11,0.749,2.31,1.92,3.76,1.93,4.35,0.487,1.84,2.4,5.66,11.3,23.9,1.43,5.59
Clc1nc(Cl)c2ncn(Cc3cccc(Cn4cnc5c(Cl)nc(Cl)nc54)c3)c2n1,2.38,7.22,4.78,17.2,15,28.8,3.35,11.3,12.3,26.6,2.66,7,3.02,13.7,6.13,22.4,2.53,6.21,2.69,7.29
O=c1c(Oc2ccc(F)cc2F)cc2cnc(NC3CCOCC3)nc2n1CCCO,> 25,> 25,> 25,> 25,> 25,> 25,> 25,> 25,> 25,> 25,> 25,> 25,> 25,> 25,> 25,> 25,> 25,> 25,> 25,> 25
COc1cccc(-c2nc3sccn3c2-c2ccnc(NCCCNS(=O)(=O)c3cccc(F)c3)c2)c1,3.06,> 100,2.89,9.68,4.41,> 100,2.39,7.05,4.49,> 100,3.62,> 100,5.6,> 100,1.52,> 100,2.22,10.6,3,> 100
